# Patent US5162354A, “3-halo-5-halomethyl-2-oxazolidinones and their use as microbicides” (Buckman Laboratories International, Inc., priority 1991, dated 1992)
# Read-outs that look alike come from different tables or passages of the source.
# Key:
# Type in all cases: cell-based
# [1] = system: mixture of Staphylococcus aureus, Enterobacter aerogenes and Pseudomonas aeruginosa; experiment: Long-term effectiveness in water as disinfectant, basal salts method, mixture of test organisms; details: for killing at 80 ppm / killing at 40 ppm: 24 h; for activity maintained (percent kill): up to three days post-preparation in water, short contact (up to 10 min)
# Method: In order to test the effectiveness of the compounds of the present invention over a period of 15 days, the following experiment was conducted using Compound 1.
# The basal salts method described in U.S. Pat. No. 2,881,070 at column 5, beginning at line 12 and extending to column 6, line 53 was performed at two different pH values and percent kills were obtained with a mixture of test organisms (Staphylococcus aureus, Enterobacter aerogenes and Pseudomonas aeruginosa). […] At 80 ppm, prolonged sanitizing ability is maintained (99% or greater) with prolonged exposure times (24 hours contact through 15 […] post-preparation in water).
# ^a Control indicates the population of the test organism and is used
# to make sure there is vigorous growth and to calculate % kills.
# Phormidium inundatum = experiment: Growth inhibiting activity against algae in Difco Algae Broth (Phormidium inundatum); details: 672 h, pH 7, read-out: Minimum inhibitory concentration against algae
# Method: The growth inhibiting activity of the method of the invention against the three algae Chlorella pyrenoidosa, Chlorococcum hypnosporum and Phormidium inundatum was evaluated in Difco Algae Broth, the content of which was as follows:
# Forty-gram portions of the algae medium were added to 250 mL Pyrex Erlenmeyer flasks fitted with loose metal caps and then sterilized. Each of the following substances was then added to the flasks in the order listed:
# 1. Sterile algae medium as required to bring the total weight of the contents of each flask to 50 grams, after allowing for all subsequent additions specified below.
# 2. A solution of one of compounds 1-4 or of a control agent to be evaluated in each test, to give the concentration desired in parts per million by weight.
# 3. Chlorella pyrenoidosa, Chlorococcum hypnosporum and Phormidium inundatum in amounts sufficient to give excellent growth in the controls after 14 days. This was achieved by adding 1 milliliter of a 14 day old culture having luxuriant growth. The Chlorella pyrenoidosa culture was obtained from American Type Culture Collection No. 7516; Chlorococcum hypnosporum, from the University of TX at Austin; and Phormidium inundatum, WI No. 1093, from the University of WA.
# As a control experiment, WSCP was used as a positive control agent. WSCP is a known toxicant which kills C. pyrenoidosa at 2 ppm, C. hypnosporum at 2ppm, and P. inundatum at 10 ppm. Control experiments were also carried out where no toxicants were employed. In the algicidal tests, the growth of algae in the nutrient medium is lush green and can be seen with the naked eye. Because the minimum inhibitory concentrations of the compounds in this example are those which result in complete inhibition, evaluation of the test results is not subjective.
# After the inoculum of the test algae was added, the flasks were incubated at a temperature of 28°±2° C. under fluorescent illumination of 250 foot-candle intensity (8 hours light, 16 hours darkness) for a period adequate for growth in the controls (those portions of medium which contained no toxicant). Observations of growth were made at 7-day intervals. Minimum inhibitory concentrations are those that prevented complete growth after 28 days.
# Pseudomonas aeruginosa = experiment: AOAC Disinfectant Swimming Pool Assay (Pseudomonas aeruginosa); details: 10 min, contact time 10 minutes, read-out: MIC (Minimum inhibitory concentration required to inhibit microorganisms)
# Method: (§1) This example was based on the procedure described in AOAC (Association of Official Analytical Chemists) Official Methods of Analysis (1986) pp 75-77. The results obtained by this method are suitable for presumptive evidence of acceptability of products for disinfecting swimming pool water. The results obtained for Compound 1 in a contact time of 10 minutes are noted in Table IV.
# Klebsiella pneumonia = experiment: AOAC Disinfectant Swimming Pool Assay (Klebsiella pneumonia); details: Klebsiella pneumoniae, 10 min, read-out: MIC (Minimum inhibitory concentration required to inhibit microorganisms)
# Method: as §1
# Streptococcus faecalis = experiment: AOAC Germicidal and Detergent Sanitizing Action of Disinfectants (Streptococcus faecalis)
# Method: This test is conducted according to AOAC methods described in AOAC Official Methods of Analysis (1984) p 70. This test is suitable for chemicals that can be permitted for use in sanitizing precleaned non-porous food contact surfaces. This test also determines the effectiveness of compounds tested in hard water. Most of the detergents/sanitizers available in the market become ineffective in the presence of hard water, i.e. water containing calcium and/or magnesium ions. A water hardness value of 400 ppm was chosen because it is considered to be the highest hardness value for tap water in the United States.
smiles,measurement,setting,value
"O=C1OC(CCl)CN1Br (stereo not drawn) [Compound 1, 3-Bromo-5-chloromethyl-2-oxazolidinone]",killing at 80 ppm,"[1]; pH 6, Day 2 after preparation in soft water, 80 ppm, pH 6.0, 24 hours contact, read-out: % Reduction (Kill)",100%
same,killing at 40 ppm,"[1]; pH 6, Day 3 after preparation in soft water, pH 6.0, 24 hours contact, read-out: % Reduction (Kill)",100%
same,killing at 80 ppm,"[1]; pH 6, Day 3 after preparation in soft water, 80 ppm, pH 6.0, 24 hours contact, read-out: % Reduction (Kill)",100%
same,killing at 40 ppm,"[1]; pH 6, Day 4 after preparation in soft water, pH 6.0, 24 hours contact, read-out: % Reduction (Kill)",99.6%
same,killing at 80 ppm,"[1]; pH 6, Day 4 after preparation in soft water, 80 ppm, pH 6.0, 24 hours contact, read-out: % Reduction (Kill)",99.9%
same,killing at 40 ppm,"[1]; pH 6, Day 5 after preparation in soft water, pH 6.0, 24 hours contact, read-out: % Reduction (Kill)",91.8%
same,killing at 80 ppm,"[1]; pH 6, Day 5 after preparation in soft water, 80 ppm, pH 6.0, 24 hours contact, read-out: % Reduction (Kill)",99.6%
same,killing at 40 ppm,"[1]; pH 6, Day 14 after preparation in soft water, pH 6.0, 24 hours contact, read-out: % Reduction (Kill)",99.8%
same,killing at 80 ppm,"[1]; pH 6, Day 14 after preparation in soft water, 80 ppm, pH 6.0, 24 hours contact, read-out: % Reduction (Kill)",100%
same,killing at 40 ppm,"[1]; pH 6, Day 15 after preparation in soft water, pH 6.0, 24 hours contact, read-out: % Reduction (Kill)",96%
same,killing at 80 ppm,"[1]; pH 6, Day 15 after preparation in soft water, 80 ppm, pH 6.0, 24 hours contact, read-out: % Reduction (Kill)",100%
same,killing at 40 ppm,"[1]; pH 8, Day 1 after preparation in soft water, pH 8.0, 24 hours contact, read-out: % Reduction (Kill)",100%
same,killing at 80 ppm,"[1]; pH 8, Day 1 after preparation in soft water, 80 ppm, pH 8.0, 24 hours contact, read-out: % Reduction (Kill)",100%
same,killing at 40 ppm,"[1]; pH 8, Day 2 after preparation in soft water, pH 8.0, 24 hours contact, read-out: % Reduction (Kill)",100%
same,killing at 80 ppm,"[1]; pH 8, Day 2 after preparation in soft water, 80 ppm, pH 8.0, 24 hours contact, read-out: % Reduction (Kill)",100%
same,killing at 40 ppm,"[1]; pH 8, Day 3 after preparation in soft water, pH 8.0, 24 hours contact, read-out: % Reduction (Kill)",100%
same,killing at 80 ppm,"[1]; pH 8, Day 3 after preparation in soft water, 80 ppm, pH 8.0, 24 hours contact, read-out: % Reduction (Kill)",100%
same,killing at 40 ppm,"[1]; pH 8, Day 4 after preparation in soft water, pH 8.0, 24 hours contact, read-out: % Reduction (Kill)",98.7%
same,killing at 80 ppm,"[1]; pH 8, Day 4 after preparation in soft water, 80 ppm, pH 8.0, 24 hours contact, read-out: % Reduction (Kill)",100%
same,killing at 40 ppm,"[1]; pH 8, Day 5 after preparation in soft water, pH 8.0, 24 hours contact, read-out: % Reduction (Kill)",99.9%
same,killing at 80 ppm,"[1]; pH 8, Day 5 after preparation in soft water, 80 ppm, pH 8.0, 24 hours contact, read-out: % Reduction (Kill)",99.9%
same,killing at 40 ppm,"[1]; pH 8, Day 14 after preparation in soft water, pH 8.0, 24 hours contact, read-out: % Reduction (Kill)",99.5%
same,killing at 80 ppm,"[1]; pH 8, Day 14 after preparation in soft water, 80 ppm, pH 8.0, 24 hours contact, read-out: % Reduction (Kill)",99.9%
same,killing at 40 ppm,"[1]; pH 8, Day 15 after preparation in soft water, pH 8.0, 24 hours contact, read-out: % Reduction (Kill)",99.3%
same,killing at 80 ppm,"[1]; pH 8, Day 15 after preparation in soft water, 80 ppm, pH 8.0, 24 hours contact, read-out: % Reduction (Kill)",100%
same,killing at 80 ppm,"[1]; read-out: prolonged sanitizing ability maintained (percent kill), 80 ppm, 24 hours contact, through 15 days post-preparation in water",≥ 99%
same,activity maintained (percent kill),[1]; pH 6,≥ 99.99%
same,activity maintained (percent kill),[1]; pH 8,≥ 99.96%
same,MIC,Phormidium inundatum,2 µg/mL
same,MIC,Pseudomonas aeruginosa,100 µg/mL
same,MIC,Klebsiella pneumonia,100 µg/mL
same,MIC,"Streptococcus faecalis; Enterococcus faecalis, Soft Water, read-out: Minimum inhibitory concentration required to inhibit microorganisms",80 µg/mL
same,Minimum inhibitory concentration required to inhibit microorganisms,Streptococcus faecalis; Hard Water (400 ppm calcium carbonate),80 parts per million (w/v)
